Some test systems named below: UO-31 renal; SK-OV-3 ovarian; TK-10 renal; HT29 colon; MALME-3M melanoma; IGROV1 ovarian; OVCAR-8 ovarian; SN12C renal.
Common to all, as to test: inhibition of tumour cell growth, NCI panel, 48 h

The structures appear in SMILES notation.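 Test compounds were applied to cells in 96-well plates for 48 hours at 5 doses. Abbreviation: GI50, concentration required for 50% inhibition of growth. At the TGI there is no net growth.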

For `O=C1c2cc3c(cc2CC12Cc1ccc4c(c1C2=O)CCC4)CCCC3` (stereo unspecified), the TGI in the assay on UO-31 renal, in the assay with SK-OV-3 ovarian, in the assay with TK-10 renal, in the assay on HT29 colon, in the assay with MALME-3M melanoma and in the assay on IGROV1 ovarian was greater than 100 µM each time. In the assay on OVCAR-8 ovarian, the TGI was greater than 100 µM.
As to `COc1cc(OCCN(C)C)c2[nH]c(C(=O)N3CC(CCl)c4ccc(N)cc43)cc2c1` (stereo unspecified), the TGI in the assay on UO-31 renal is 2.25 µM; with SK-OV-3 ovarian, 32 µM; in the assay with TK-10 renal it was 1.09 µM; in the assay with HT29 colon, 0.262 µM.
For the molecule `CON(C)C(=O)C(C)N(Cc1ccccc1)Cc1ccccc1` (stereo unspecified), the TGI with UO-31 renal, in the assay on SK-OV-3 ovarian, in the assay on TK-10 renal, in the assay on HT29 colon, in the assay on MALME-3M melanoma and with IGROV1 ovarian was greater than 100 µM in each case. For the same molecule, the TGI with OVCAR-8 ovarian is greater than 100 µM.
Consider `N#Cc1nc(-c2cnccn2)oc1N`, for which the TGI in the assay with UO-31 renal, in the assay on SK-OV-3 ovarian, in the assay on TK-10 renal, in the assay with HT29 colon, in the assay on SN12C renal and with IGROV1 ovarian was greater than 100 µM in each case. This molecule had a TGI in the assay with OVCAR-8 ovarian greater than 100 µM.
Turning to `CC1=NN(c2nc(N)nc(COc3ccc(N)cc3)n2)C(C)(C)C1`, the TGI in the assay with UO-31 renal, in the assay with SK-OV-3 ovarian, with TK-10 renal, with HT29 colon, in the assay on IGROV1 ovarian and in the assay on OVCAR-8 ovarian was greater than 100 µM each time.
With `CC1=C/C(=N\NC(N)=S)C(C(O)(C(F)(F)F)C(F)(F)F)C(C)(C)C1` (stereo unspecified), the TGI with SK-OV-3 ovarian, in the assay with TK-10 renal, in the assay with HT29 colon, with SN12C renal, with MALME-3M melanoma and with IGROV1 ovarian was greater than 10 µM each time. The TGI in the assay on OVCAR-8 ovarian is greater than 10 µM.
`CC(C)=C[C@H]1C[C@H](C)[C@H]2CC[C@H](C)c3c2c1c(C)c1ncoc31`: the TGI with UO-31 renal worked out at 31.5 µM; in the assay with TK-10 renal, 31.7 µM; with SN12C renal, 35.6 µM; in the assay with MALME-3M melanoma it was 29.5 µM; with IGROV1 ovarian, 27 µM; in the assay on OVCAR-8 ovarian it was 36.8 µM.
Consider `COc1ccc(NC(=S)c2ccc(CN3CCCCC3)s2)cc1`, for which the TGI in the assay on UO-31 renal is 35.7 µM; in the assay with SK-OV-3 ovarian, 31.8 µM; in the assay with HT29 colon it was 18.3 µM; in the assay with SN12C renal, greater than 100 µM; with MALME-3M melanoma, 37.6 µM; with IGROV1 ovarian, 49.2 µM. This molecule also gave a TGI with OVCAR-8 ovarian of 45.4 µM.
Turning to `Nc1ncc2c(n1)-c1ccccc1OC2N1CCCCC1` (stereo unspecified), the TGI in the assay with UO-31 renal, in the assay on SK-OV-3 ovarian, in the assay with TK-10 renal, in the assay with HT29 colon, with SN12C renal and in the assay on IGROV1 ovarian was greater than 100 µM each time. In the assay with OVCAR-8 ovarian, this molecule gave a TGI greater than 100 µM.
On to `Cc1ccc(S[C@@H](C)[C@@](O)(CF)CN(Cc2ccccc2)C(=O)C(F)(F)F)cc1`, for which the TGI in the assay on UO-31 renal is 31 µM; with TK-10 renal, greater than 100 µM; in the assay with HT29 colon, 27.6 µM; in the assay with SN12C renal, 33.5 µM; in the assay with MALME-3M melanoma it was 44.2 µM; with IGROV1 ovarian, greater than 100 µM. The molecule further displayed a TGI in the assay on OVCAR-8 ovarian greater than 100 µM.
As to `COc1ccc2oc3c(C)cc4c(OC)nnc(OC)c4c3c2c1`, the TGI is greater than 100 µM with UO-31 renal; greater than 100 µM in the assay with SK-OV-3 ovarian; 91.9 µM with TK-10 renal; greater than 100 µM in the assay on HT29 colon; greater than 100 µM with SN12C renal; greater than 100 µM in the assay on MALME-3M melanoma. Moreover, the TGI in the assay on OVCAR-8 ovarian was greater than 100 µM.
As to `CCOC(=O)c1csc(NC(=O)CN2CCCC2)n1`, the TGI in the assay with UO-31 renal, in the assay with SK-OV-3 ovarian, with TK-10 renal, with HT29 colon, in the assay with IGROV1 ovarian and in the assay on OVCAR-8 ovarian was greater than 100 µM in each case.
Turning to `O=S(=O)(O)c1cc(N=Nc2c(O)ccc3ccccc23)cc2c(S(=O)(=O)O)cccc12`, the TGI in the assay with UO-31 renal, with SK-OV-3 ovarian, in the assay on TK-10 renal, in the assay with HT29 colon, in the assay on MALME-3M melanoma and in the assay with IGROV1 ovarian was greater than 100 µM each time. Besides, the TGI in the assay with OVCAR-8 ovarian was greater than 100 µM.
In the case of `COC(=O)c1cccc(C)c1C1CN=NC12Cc1cc(C)cc(C)c1C2=O` (stereo unspecified), the TGI was greater than 100 µM with UO-31 renal; greater than 100 µM in the assay on TK-10 renal; 86.7 µM in the assay with HT29 colon; greater than 100 µM in the assay with SN12C renal; greater than 100 µM with MALME-3M melanoma; greater than 100 µM in the assay with IGROV1 ovarian. This molecule also registered a TGI in the assay with OVCAR-8 ovarian greater than 100 µM.
For `COc1cc2c(/C=C3/C(=O)Nc4cccc(Cl)c43)c(Cl)[nH]c2cc1C`, the TGI in the assay on UO-31 renal amounted to 17.1 µM; in the assay with SK-OV-3 ovarian, 5.67 µM; in the assay with TK-10 renal, 3.58 µM; with HT29 colon it was 3.96 µM; in the assay on SN12C renal, 3.33 µM; with IGROV1 ovarian, 11.8 µM. Also, in the assay with OVCAR-8 ovarian, the TGI worked out at 11.8 µM.
Regarding `COc1cc(/C=C2\CN(S(=O)(=O)c3ccc(C)cc3)C/C(=C\c3cc(CN4CCCC4)c(O)c(OC)c3)C2=O)cc(CN2CCCC2)c1O`, the GI50 is 1.51 µM in the assay on UO-31 renal; 1.86 µM in the assay on TK-10 renal; 1.24 µM with SN12C renal; 1.71 µM in the assay on MALME-3M melanoma; 0.71 µM in the assay on OVCAR-8 ovarian. In addition, the TGI in the assay on UO-31 renal is 2.96 µM; with TK-10 renal, 3.49 µM; in the assay with SN12C renal, 2.8 µM; in the assay on MALME-3M melanoma it was 3.3 µM; in the assay with OVCAR-8 ovarian, 2.92 µM.
Take `CO[C@](C(=O)OC[C@H]1[C@@H](COC(C)=O)[C@@H]2O[C@H]1c1cc3c(cc12)OCO3)(c1ccccc1)C(F)(F)F`: the TGI with UO-31 renal is 55.4 µM; with SK-OV-3 ovarian, greater than 100 µM; in the assay with TK-10 renal, greater than 100 µM; with HT29 colon, greater than 100 µM; in the assay on SN12C renal, greater than 100 µM; with MALME-3M melanoma, greater than 100 µM. The molecule further had a TGI with IGROV1 ovarian of 81.1 µM.

These data come from PubChem BioAssay (NCI).
